Laboratory results as given in US7872006B2, “Pyrazole compounds having cannabinoid receptor (CB1) antagonizing activity” (Mitsubishi Tanabe Pharma Corporation, priority 2005, dated 2011).
Where two headings read alike, the source gives them in different places.

Target: T1, Human CB1 receptor (Homo sapiens, UniProt P21554)
T1 construct: host or cells: CHO cells; the membrane fraction was prepared in house from the purchased recombinant line
Test: Human CB1 receptor binding assay ([3H]-CP55940 displacement)
Method: [Human CB1 Receptor Binding Assay]
(1) Preparation of human CB1 receptor (membrane fraction):
Human CB1-expressing cell line: hCB1/CHO#C3 (Euroscreen)
The receptor-expressing cells cultivated in the above medium were washed with phosphate buffer (×2) and thereto was added Buffer A (2 mL) under ice-cooling or 4° C. (the following procedures were also carried out at the same temperature). The cells were collected by using a cell-scraper, treated by a microtip-type ultrasonicator for 20 seconds (pulse-on: 2 sec, pulse-off: 1 sec) and centrifuged (500×g, 15 min). The supernatant was separated and centrifuged (43000×g, 60 min). The resultant pellet was suspended in Buffer A and homogenized with a potter-type homogenizer. To the homogenate was added an equal volume of 80% glycerol and stored at −80° C.
(2) Procedure of CB1 Receptor Binding Assay:
Radioligand: [^3H]-CP55940 (30 nM/7992 dpm/μL) prepared by diluting 8.3 µM solution of the radioligand with Buffer B
Each well of the assay plate (96-well, Costar Code#3371) was filled with Buffer B (140 μL), a solution of each test compound in dimethylsulfoxide (20 μL, […]), radioligand (20 μL) and membrane preparation (20 μL, 0.5 µg/20 μL) and the mixture was incubated at 30° C. for 90 minutes to proceed the binding reaction. The reaction mixture was harvested to each well of a plate presoaked with the above coating solution (Packard Unifilter GF/B, #6005177). The plate was washed with Buffer C (200 μL×10) and dried at 50° C. for 1 hour and Microscinti 40 (40 μL) was added to each well. The bound radiolabel was quantitated by scintilation counting (Top Count NXT, Packard). IC50 value of each test compound against the radioligand-binding to CB1 receptors was calculated on the basis of the quantitated radiolabel activity by using Graphpad Prism 3.02.

[1] = radioligand [3H]-CP55940, membrane fraction of hCB1/CHO cells, 30° C. for 90 minutes, read-out: IC50

T1 sequence (P21554 whole entry): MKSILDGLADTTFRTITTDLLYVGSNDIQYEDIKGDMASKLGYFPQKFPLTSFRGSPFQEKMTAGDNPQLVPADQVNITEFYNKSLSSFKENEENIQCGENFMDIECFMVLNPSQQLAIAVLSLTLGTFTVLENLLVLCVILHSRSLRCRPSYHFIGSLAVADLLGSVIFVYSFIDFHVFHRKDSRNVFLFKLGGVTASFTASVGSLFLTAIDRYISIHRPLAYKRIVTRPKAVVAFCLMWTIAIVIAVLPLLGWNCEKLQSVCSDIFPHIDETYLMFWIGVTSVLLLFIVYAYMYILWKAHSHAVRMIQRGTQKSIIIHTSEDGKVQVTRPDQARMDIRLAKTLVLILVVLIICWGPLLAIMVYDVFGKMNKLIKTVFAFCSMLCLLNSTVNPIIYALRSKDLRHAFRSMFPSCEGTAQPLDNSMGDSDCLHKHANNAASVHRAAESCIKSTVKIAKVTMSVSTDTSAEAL

Compound	IC50 [1]	IC50
COc1c(C(=O)NN2CCN(C(=O)c3ccc(F)cc3F)CC2)nn(-c2ccccc2Cl)c1-c1ccc(Cl)cc1 [Example 216]	10 to 100 nM	
1-(2-chlorophenyl)-5-(4-chlorophenyl)-4-hydroxy-3-[N′-(4-tetrahydropyranyl)ureido]-1H-pyrazole [Example 18]	10 to 100 nM	
NC(=O)COc1c(C(=O)NN2CCC(C(N)=O)(c3ccccc3)CC2)nn(-c2ccccc2Cl)c1-c1ccc(Cl)cc1 [Example 276, 1-(2-chlorophenyl)-5-(4-chloro-phenyl)-4-carbamoylmethoxy-3-[N-(4-carbamoyl-4-phenylpiperidin-1-yl)carbamoyl]-1H-pyrazole]	10 to 100 nM	
CCNC(=O)NCCOc1c(C(=O)NN2CCCC2)nn(-c2ccccc2Cl)c1-c1ccc(Cl)cc1 [Example 288, 1-(2-chlorophenyl)-5-(4-chlorophenyl)-4-[2-(N′-ethylureido)ethoxy]-3-[N-(1-pyrrolidinyl)carbamoyl]-1H-pyrazole]	100 to 500 nM	
COc1c(C(=O)NCC(F)(F)F)nn(-c2ccccc2Cl)c1-c1ccc(Cl)cc1 [Example 4]	10 to 100 nM	
COc1c(C(=O)CN2CCS(=O)(=O)CC2)nn(-c2ccccc2Cl)c1-c1ccc(Cl)cc1 [Example 36, 1-(2-chlorophenyl)-5-(4-chlorophenyl)-4-methoxy-3-[1-(1,1-dioxothiomorpholino)acetyl]-1H-pyrazole]	10 to 100 nM	
COc1c(C(=O)NN2CCN(c3ccc(C(F)F)cn3)CC2)nn(-c2ccccc2Cl)c1-c1ccc(Cl)cc1 [Example 339, 1-(2-chlorophenyl)-5-(4-chlorophenyl)-3-[N-[4-(5-difluoromethyl-pyridin-2-yl)piperazin-1-yl]carbamoyl]-4-methoxy-1H-pyrazole]		10 to 100 nM
COc1c(C(=O)NC2CCCC2)nn(-c2ccccc2Cl)c1-c1ccc(Cl)cc1 [Example 55]		10 to 100 nM
COc1c(C(=O)NN(C)C)nn(-c2ccccc2Cl)c1-c1ccc(C(F)(F)F)cc1 [Example 134]	10 to 100 nM	
O=C(NN1CCC(F)(F)CC1)c1nn(-c2ccccc2Cl)c(-c2ccc(Cl)cc2)c1OC(F)F [Example 307]	< 10 nM	
COCCOc1c(C(=O)NN2CCCC2)nn(-c2ccccc2Cl)c1-c1ccc(C(F)(F)F)cc1 [Example 148]	10 to 100 nM	
CCNC1(C(N)=O)CCN(C(=O)c2nn(-c3ccccc3Cl)c(-c3ccc(Cl)cc3)c2O)CC1 [Example 279, 1-(2-chlorophenyl)-5-(4-chlorophenyl)-4-hydroxy-3-[[4-carbamoyl-4-(ethylamino)piperidino]carbonyl]-1H-pyrazole]	10 to 100 nM	
